This test addresses T1, hM1 (Homo sapiens, UniProt P11229).
T1 construct: expressed in transfected cells; host or cells: CHO
T1 sequence (P11229 1-460): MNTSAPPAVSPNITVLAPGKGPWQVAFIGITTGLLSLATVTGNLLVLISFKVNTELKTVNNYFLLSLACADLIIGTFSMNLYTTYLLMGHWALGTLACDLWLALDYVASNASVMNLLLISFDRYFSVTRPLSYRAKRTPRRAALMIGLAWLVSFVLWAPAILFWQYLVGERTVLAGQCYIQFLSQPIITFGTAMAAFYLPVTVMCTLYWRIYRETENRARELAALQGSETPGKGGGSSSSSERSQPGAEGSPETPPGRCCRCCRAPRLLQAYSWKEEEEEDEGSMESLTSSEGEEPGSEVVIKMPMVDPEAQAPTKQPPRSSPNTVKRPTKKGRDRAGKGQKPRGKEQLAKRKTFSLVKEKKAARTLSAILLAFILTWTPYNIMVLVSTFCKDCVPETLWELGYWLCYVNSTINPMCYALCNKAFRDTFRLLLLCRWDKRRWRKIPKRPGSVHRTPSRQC
Briefly: FLIPR intracellular calcium assay for modulator activity at the muscarinic M1 receptor in CHO human M1 cells. Type of test: cell-based. Here is the method:
The assay study the effect of several concentrations of test compounds on basal or acetylcholine-stimulated Ca^2+ levels using FLIPR.
The cell plate and the diluted compounds (1% DMSO final concentration) are placed on the platform of the FLIPR and the door closed. A signal test to check background fluorescence and basal fluorescence signal is performed. Laser intensity is adjusted if necessary. Two minutes preincubation with the diluted test compounds is provide to determine any agonist activity on the M1 receptor by comparison to 30 nM Acetylcholine control. In order to determine any modulator activity the diluted compounds were added to cells and after two minutes preincubation, the EC20 of acetylcholine is added followed by another two minutes preincubation before the measurement of intracellular Ca^2+ with a FLIPR (Molecular Devices).
(In general: A change in cytosolic calcium serves as a functional read-out for many receptors and channels.)

The mark [1] stands for this setting: CHO human M1, with EC20 of acetylcholine, FLIPR, read-out: IC50 value hM1 (converted).

A word on the IC50: it is the concentration that inhibits the measured activity by half.

Like-named read-outs stand apart in the source and are kept apart here.

In the case of `S=C1Nc2ccc(Cl)cc2C(c2ccccc2)=N[C@@H]1Cc1ccccc1` (single isomer, unassigned) [Example 21], the IC50 was 1140 nM. As to `S=C1Nc2ccc(Cl)cc2C(c2ccccc2)=N[C@H]1Cc1ccccc1` (single isomer, unassigned) [Example 30], the IC50 came out at 251 nM.

As for `CC(C)[C@@H]1N=C(c2ccc(F)cc2)c2cc(OC(F)(F)F)ccc2NC1=S` [Example 1, (3S)-5-(4-fluorophenyl)-3-isopropyl-7-(trifluoromethoxy)-1,3-dihydro-1,4-benzodiazepine-2-thione], the IC50 under setting [1] is 312 nM. On to `CC(C)[C@@H]1N=C(c2ccccn2)c2cc(Br)ccc2NC1=S` [Example 2, (3S)-7-bromo-3-propan-2-yl-5-pyridin-2-yl-1,3-dihydro-1,4-benzodiazepine-2-thione], for which the IC50 was 289 nM.

In the case of `S=C1Nc2ccc(Cl)cc2C(c2ccccc2)=N[C@H]1CC1CC1` [Example 3, (3S)-7-chloro-3-(cyclopropylmethyl)-5-phenyl-1,3-dihydro-1,4-benzodiazepine-2-thione], the IC50 was 311 nM.

For the molecule `CC[C@@H]1N=C(c2ccccc2)c2cc(Cl)ccc2NC1=S` [Example 4, (3S)-7-chloro-3-ethyl-5-phenyl-1,3-dihydro-1,4-benzodiazepine-2-thione], the IC50 is 103 nM. As for `CCC[C@]1(C)N=C(c2ccccc2)c2cc(Cl)ccc2NC1=S` [Example 6, (3S)-7-chloro-3-methyl-5-phenyl-3-propyl-1H-1,4-benzodiazepine-2-thione], the IC50 was 104 nM. On the same count and under the same terms, for `CCC[C@@H]1N=C(c2ccccc2)c2cc(Cl)ccc2NC1=S` [Example 7, (3S)-7-chloro-5-phenyl-3-propyl-1,3-dihydro-1,4-benzodiazepine-2-thione] the value was 187 nM; for `FC(F)(F)C[C@@H]1N=C(c2ccccc2)c2cc(Cl)ccc2NC1=S` [Example 8, (3S)-7-chloro-5-phenyl-3-(2,2,2-trifluoroethyl)-1,3-dihydro-1,4-benzodiazepine-2-thione], 238 nM; for `CSCC[C@H]1N=C(c2ccccc2)c2cc(Cl)ccc2NC1=S` [Example 9, (3R)-7-chloro-3-(2-methylsulfanylethyl)-5-phenyl-1,3-dihydro-1,4-benzodiazepine-2-thione], 504 nM. The same measure, in the same setting: for `Fc1ccccc1C1=N[C@@H](C(F)(F)F)C(=S)Nc2ccc(Cl)cc21` [Example 10, (3S)-7-chloro-5-(2-fluorophenyl)-3-(trifluoromethyl)-1,3-dihydro-1,4-benzodiazepine-2-thione] the value was 610 nM; for `Fc1ccccc1C1=N[C@H](C(F)(F)F)C(=S)Nc2ccc(Cl)cc21` [Example 11, (3R)-7-chloro-5-(2-fluorophenyl)-3-(trifluoromethyl)-1,3-dihydro-1,4-benzodiazepine-2-thione], 622 nM.

Take `CC1N=C(c2ccccc2)c2cc([N+](=O)[O-])ccc2NC1=S` (stereo not shown) [Example 12, 3-methyl-7-nitro-5-phenyl-1,3-dihydro-1,4-benzodiazepine-2-thione]: the IC50 was 732 nM. Consider `Cc1ccc2c(c1)C(c1ccccc1F)=N[C@@H](C(C)C)C(=S)N2` [Example 13, (3S)-5-(2-fluorophenyl)-3-isopropyl-7-methyl-1,3-dihydro-1,4-benzodiazepine-2-thione], for which the IC50 was found to be 62 nM. `CC(C)C1N=C(c2ccccc2)c2cc(Cl)ccc2NC1=S` (stereo not shown) [Example 15, 7-chloro-3-isopropyl-5-phenyl-1,3-dihydro-1,4-benzodiazepine-2-thione]: the IC50 was 64 nM. As for `CC(C)[C@@H]1N=C(c2ccccc2)c2cc(Cl)ccc2NC1=S` [Example 16, (3S)-7-chloro-3-isopropyl-5-phenyl-1,3-dihydro-1,4-benzodiazepine-2-thione], the IC50 was 70 nM.

Take `CCCC1=NCC(=S)Nc2ccc(Cl)cc21` [Example 17, 7-chloro-5-propyl-1,3-dihydro-1,4-benzodiazepine-2-thione]: the IC50 under setting [1] is 1280 nM.

With `CC(C)[C@@H]1N=C(c2ccccc2)c2cc(C(F)(F)F)ccc2NC1=S` [Example 18, (3S)-3-isopropyl-5-phenyl-7-(trifluoromethyl)-1,3-dihydro-1,4-benzodiazepine-2-thione], the IC50 is 71 nM. On to `CC(C)[C@@H]1N=C(c2ccccc2)c2cc(-c3ccccc3)ccc2NC1=S` [Example 19, (3S)-3-isopropyl-5,7-diphenyl-1,3-dihydro-1,4-benzodiazepine-2-thione], for which the IC50 is 1470 nM. As for `FC(F)(F)c1ccc2c(c1)C(C1CCCCC1)=NCC(=S)N2` [Example 20, 5-cyclohexyl-7-(trifluoromethyl)-1,3-dihydro-1,4-benzodiazepine-2-thione], the IC50 was 1950 nM. Regarding `CC(C)[C@@H]1N=C(c2cccc(Cl)c2)c2cc(Cl)ccc2NC1=S` [Example 22, (3S)-7-chloro-5-(3-chlorophenyl)-3-isopropyl-1,3-dihydro-1,4-benzodiazepine-2-thione], the IC50 was determined as 172 nM.

Take `CC(C)[C@@H]1N=C(c2ccccc2F)c2ccc(Cl)cc2NC1=S` [Example 23, (3S)-8-chloro-5-(2-fluorophenyl)-3-isopropyl-1,3-dihydro-1,4-benzodiazepine-2-thione]: the IC50 came to 399 nM.

For `S=C1Nc2ccc(Cl)cc2C(c2ccccc2)=N[C@H]1C1CC1` [Example 24, (3S)-7-chloro-3-cyclopropyl-5-phenyl-1,3-dihydro-1,4-benzodiazepine-2-thione], the IC50 amounted to 165 nM. In the case of `CC(C)[C@@H]1N=C(c2ccccc2)c2cc(OC(F)(F)F)ccc2NC1=S` [Example 25, (3S)-3-isopropyl-5-phenyl-7-(trifluoromethoxy)-1,3-dihydro-1,4-benzodiazepine-2-thione], the IC50 worked out at 232 nM. On the same count and under the same terms, in the case of `CC(C)(O)C1N=C(c2ccccc2)c2cc(Cl)ccc2NC1=S` (stereo not shown) [Example 26, 7-chloro-3-(1-hydroxy-1-methyl-ethyl)-5-phenyl-1,3-dihydro-1,4-benzodiazepine-2-thione] it was 1850 nM.

In the case of `CC(C)C[C@@H]1N=C(c2ccccc2F)c2cc(Cl)ccc2NC1=S` [Example 27, (3S)-7-Chloro-5-(2-fluorophenyl)-3-isobutyl-1,3-dihydro-1,4-benzodiazepine-2-thione], the half-maximal inhibitory concentration (IC50) is 641 nM. Regarding `S=C1Nc2ccccc2C(c2ccccc2)=NC1Cc1ccc(Cl)c(Cl)c1` (stereo not shown) [Example 28, 3-[(3,4-Dichlorophenyl)methyl]-5-phenyl-1,3-dihydro-1,4-benzodiazepine-2-thione], the IC50 is 1670 nM. As to `Fc1ccccc1C1=N[C@@H](c2ccccc2)C(=S)Nc2ccc(Cl)cc21` [Example 29, (3S)-7-Chloro-5-(2-fluorophenyl)-3-phenyl-1,3-dihydro-1,4-benzodiazepine-2-thione], the IC50 was 1470 nM. Same read-out and setting: in the case of `S=C1Nc2ccc(Cl)cc2C(c2ccccc2)=NC1c1ccccc1` (stereo not shown) [Example 31, 7-chloro-3,5-diphenyl-1,3-dihydro-1,4-benzodiazepine-2-thione] it was 799 nM.

For `CC(C)[C@@H]1N=C(c2cccnc2)c2cc(Br)ccc2NC1=S` [Example 32, (3S)-7-bromo-3-isopropyl-5-(3-pyridyl)-1,3-dihydro-1,4-benzodiazepine-2-thione], the IC50 is 275 nM. On to `CSCC[C@@H]1N=C(c2ccccc2)c2cc(Cl)ccc2NC1=S` [Example 33, (3S)-7-chloro-3-(2-methylsulfanylethyl)-5-phenyl-1,3-dihydro-1,4-benzodiazepine-2-thione], for which the IC50 is 1200 nM. Same read-out and setting: for `CC(C)[C@H]1N=C(c2ccccc2F)c2cc(Cl)ccc2NC1=S` [Example 34, (3R)-7-chloro-5-(2-fluorophenyl)-3-isopropyl-1,3-dihydro-1,4-benzodiazepine-2-thione] the value was 420 nM; for `CC(C)[C@H]1N=C(c2ccccc2)c2cc(Cl)ccc2NC1=S` [Example 35, (3R)-7-chloro-3-isopropyl-5-phenyl-1,3-dihydro-1,4-benzodiazepine-2-thione], 521 nM. The same measure, in the same setting: for `CC(C)C[C@@H]1N=C(c2ccccc2)c2cc(Cl)ccc2NC1=S` [Example 36, (S)-7-Chloro-3-isobutyl-5-phenyl-1,3-dihydro-benzo[e][1,4]diazepine-2-thione] the value was 317 nM; for `CCC1N=C(c2ccccc2F)c2cc(N)ccc2NC1=S` (stereo not shown) [Example 37, 7-amino-3-ethyl-5-(2-fluorophenyl)-1,3-dihydro-1,4-benzodiazepine-2-thione], 6060 nM. On the same count and under the same terms, in the case of `COC(C)C1N=C(c2ccccc2)c2cc(Cl)ccc2NC1=S` (stereo not shown) [Example 38, 7-chloro-3-(1-methoxyethyl)-5-phenyl-1,3-dihydro-1,4-benzodiazepine-2-thione] it was 354 nM. `CC(C)[C@@H]1N=C(C2CCCCC2)c2cc(Cl)ccc2NC1=S` [Example 39, (3S)-7-chloro-5-cyclohexyl-3-isopropyl-1,3-dihydro-1,4-benzodiazepine-2-thione]: the IC50 under setting [1] is 414 nM.
